Data from patent US20130034536A1, “Bile Acid Recycling Inhibitors for Treatment of Pancreatitis” (Lumena Pharmaceuticals, Inc., priority 2011, published 2013).

Tested on: plasma active GLP-1 levels
Experiment: In vivo effects of ASBT inhibitor SC-435 on plasma active GLP-1 levels in rats (ELISA)
Design: species or system Sprague Dawley rats
Experimental: Male Sprague Dawley rats (HSD) 12 weeks old were fasted overnight for 16 hours.
SC-435 (racemate form synthesized at Nanosyn Inc. Menlo Park, Calif.) in 1 ml of saline administrated orally via gavage tube (n=5 per group).
Blood samples (200 μl) taken from the caudal vein with capillary tube at […] after compound administration for testing of plasma active GLP-1 levels (ELISA, Millipore Inc.)
Blood was collected in ice-cooled EDTA vial. Immediately (<30 seconds) after collection DPP-IV inhibitor added (10mkl per 1 ml blood). Samples were centrifuged immediately at 1000×g for 10 minutes in refrigerated centrifuge. Plasma was stored at −70° C. until evaluation.

1-[4-[4-[(4R,5R)-3,3-dibutyl-7-(dimethylamino)-2,3,4,5-tetrahydro-4-hydroxy-1,1-dioxido-benzothiepin-5-yl]phenoxy]butyl]-4-aza-1-azoniabicyclo[2.2.2]octane methanesulfonate salt [SC-435]
time of peak GLP-1 after administration (after oral SC-435 administration): 3 to 5 h | increase of 5-hour integrated GLP-1 concentrations vs. vehicle (oral gavage, doses 3, 30 or 100 mg/kg, overnight-fasted male rats, dose-dependent): 2.5 fold | Peak GLP-1 (plasma active GLP-1 after oral SC-435): 30 to 36 pM
